According to patent US20040142968A1, “Method and kit for treating lower bowel pain” (priority 2003, published 2004):

Assays:
[1] = system: patient with bowel pain associated with menses; conditions: open injection at 4 hours after the placebo saline administration
Description: The patients were greeted in a waiting room, escorted to an examination room, and introduced to the study. […] A one-hour NH condition preceded either the RL or RP administration in both sessions. Thus, patients rated their rectal pain for one hour at 15-minute intervals before injection of the rectal agent (NH) and 15 min, 30 min, 45 min, 1 hour, 2 hours, 4 hours, and 6 hours afterwards. Both agents were applied through a plastic syringe. […] After all of the sessions were completed, the patients were debriefed.

[2] = system: patients with pain associated with IBS
Excerpt: Ten Caucasian pre-menopausal women with IBS participated in the study. The mean age was 33 (±4) years. All participants completed a GI symptom questionnaire and received a physical examination by an experienced gastroenterologist. The diagnosis of IBS was made based on the ROME II criteria and exclusion of organic disease (Thompson et al., 1999). All the patients had diarrhea-predominant IBS and had symptoms for at least 5 years. All of the IBS patients were carefully screened to verify that each patient had no clinical criteria for fibromyalgia or chronic pain condition.
All subjects were asked to fast for 12 hours and self-administer one Fleets® enema (CB Fleet Co., Inc., Lynchberg, Va.) at least two hours prior to arriving for the experimental procedures. […] A validated visual analogue scale was used to measure the subjects' perceived pain (Price, 1994).
A one-hour NH condition preceded either the RL or RP administration in both sessions. Thus, patients rated their rectal pain for one hour at 15-minute intervals before injection of the rectal agent (NH) and 15 min, 30 min, 45 min, 1 hour, 2 hours, 4 hours, and 6 hours afterwards. Both agents were applied through a plastic syringe.
The pain rating at each post-treatment time point was subtracted from the baseline rating to create a pain intensity difference score (PID) for each post-treatment time point of each patient. […]

In the case of `CCN(CC)CC(=O)Nc1c(C)cccc1C` [lidocaine], the “effect of open injection on bowel pain” value [1] is reported as “reversed bowel pain” and the “duration of pain ameliorating effect in IBS patients” value [2] is reported as “at least 4 hours”.
